Reference: US6274596A, “Benzoquinoline derivatives useful as antibacterial agents” (priority 1999, dated 2001)
≈ marks a conversion by molar mass, not a printed value. Read-outs that look alike come from different tables or passages of the source.

Experiments:
S. Aureus [1] = test: MBC, S. Aureus; type: cell-based; settings: for MBC: Staphylococcus aureus, read-out: MBG
Experimental: (§1) The antimicrobial activity of a compound or formulation according to the invention is determined by exposing a culture comprising a bacterial species to different concentrations of the compound or formulation and monitoring the effects on growth relative to a control culture not exposed to the compound. Any method known in the art may be used to assess bacterial growth. Antimicrobial effects are expressed as Minimal Inhibitory Concentration (MIC) and Minimum Bactericidal Concentration (MBC).
(§2) The minimum bactericidal concentration (MBC) is defined as the concentration of antimicrobial agent from which no colonies grow on petri plates or in the medium. In practice, the MBC is arbitrarily defmed as the concentration at which a 1000-fold reduction in colony forming units is observed with respect to the original inoculum (survival of 0.1%). Typically, the wells from a MIC microliter plate using a 96-well inoculation grid into a fresh microliter plate containing 100 μL Mueller-Hinton broth per well. The MBC plates are incubated at 37° C. for 16-20 hrs and the MBC values are determined.
(§3) The antimicrobial activities of the compounds of the invention, expressed as MIC and MBC, were determined as described above, using as tester strains wild-type S. aureus, rifampicin-resistant S. aureus, wild-type E. coli, and E. coli cells that had been permeabilized.

E. coli (MCR106) [2] = test: MIC, broth microdilution, E. coli (MCR106); type: cell-based
Experimental: as §1
(§4) The MIC is expressed as a range between the concentration at which no growth is observed and the concentration of the dilution which immediately follows.
(§5) Typically, MIC is measured using a broth microdilution assay as follows. Dilution of candidate antimicrobial compounds in culture medium is performed in a sterile, covered 96-well microtiter plate with flat bottom wells (Costar #9017). The final concentrations of the compounds are typically 100, 50, 25, 12.5, 6.25, 3.12, 1.56, 0.78, 0.39, 0.20, 0.10, and 0.05 μg/mL, respectively. Culture medium only (containing no bacteria) is also included as a negative control for each plate. Ampicillin and rifamnpin are used as positive controls against all bacterial strains in every experiment.
(§6) The overnight culture of a single colony is diluted in sterile medium so that, after inoculation, each well contains approximately 5×10^5CFU/mL. Within 15 minutes of preparation, […] of the adjusted inoculum suspension is added to the microliter plate. Each well is diluted with an equal volume of the antimicrobial compounds or control solution. The inoculated microtiter plate is typically incubated at 35° C. for 16-20 hours. The turbidity of each well is determined by measuring the absorbance at 595 nm using a BioRad Model 3550-UV microplate reader.
as §3

E. coli (BAS) [3] = test: MBC, E. coli (BAS); type: cell-based; settings: minimum bactericidal concentration; for MBC: Escherichia coli, read-out: MBG
Experimental: as §1, §2, §3

S. Aureus [4] = test: MIC, broth microdilution, S. Aureus; type: cell-based; settings: for MIC: S. Aureus
Experimental: as §1, §4, §5, §6, §3

S. Aureus (Rif-res) [5] = test: MIC, broth microdilution, S. Aureus (Rif-res); type: cell-based
Experimental: as §1, §4, §5, §6, §3

E. coli (MCR106) [6] = test: MBC, E. coli (MCR106); type: cell-based; settings: minimum bactericidal concentration; for MBC: Escherichia coli, read-out: MBG
Experimental: as §1, §2, §3

S. Aureus (Rif-res) [7] = test: MBC, S. Aureus (Rif-res); type: cell-based; settings: for MBC: Staphylococcus aureus, read-out: MBG
Experimental: as §1, §2, §3

E. coli (BAS) [8] = test: MIC, broth microdilution, E. coli (BAS); type: cell-based
Experimental: as §1, §4, §5, §6, §3

bacterial RNA polymerase = test: in vitro transcription, bacterial versus human RNA polymerase; type: biochemical; settings: in words; RNA polymerase from S. aureus, E. coli or human, pTaq promoter template
Description: The compounds useful for inclusion in the pharmaceutical formulations of the invention can be identified by their ability to bind to, and/or inhibit the activity of, one or more bacterial RNA polymerases. RNA polymerase as used herein refers to DNA-dependent RNA polymerase holoenzyme, which is a complex consisting of five protein subunits: two copies of the a subunit and one copy each of the β, β', and σ subunits. The α, β and β' subunits are invariant in a given bacterial species and together form core RNA polymerase.
RNA polymerase inhibition activity of a compound can be detected by including the compound in an in vitro transcription reaction and comparing the level of transcription that occurs in the presence and absence of the compound. […] After incubation for 60 minutes at 25° C., the reaction is terminated with 100 μl 10% TCA, which also precipitates the newly transcribed RNA, and incorporation of radioactivity into RNA is quantified. […]
It will be understood that useful antimicrobial compositions and formulations act selectively on microbial pathogens. […] That is, the inhibitory activity of a particular compound towards an animal RNA polymerase may be measured in parallel with a bacterial RNA polymerase. […]

[9] = Staphylococcus aureus, read-out: MIC
[10] = Escherichia coli, read-out: MIC

| Compound | MBC (S. Aureus [1]) [µg/mL] | MIC (E. coli (MCR106) [2]; Escherichia coli) [µg/mL] | MBC (E. coli (BAS) [3]) [µg/mL] | MIC (S. Aureus [4]; [9]) [µg/mL] | MIC (S. Aureus (Rif-res) [5]; Staphylococcus aureus) [µg/mL] | MBC (E. coli (MCR106) [6]) [µg/mL] | MBC (S. Aureus (Rif-res) [7]) [µg/mL] | MIC (E. coli (BAS) [8]; [10]) [µg/mL] | MBG (S. Aureus [1]; S. Aureus, minimum bactericidal concentration) [µg/mL] | MIC (E. coli (MCR106) [2]; E. coli (MCR106)) [µg/mL] | MBG (E. coli (BAS) [3]) [µg/mL] | MIC (S. Aureus [4]) [µg/mL] | MIC (S. Aureus (Rif-res) [5]; S. Aureus (Rif-res), rifampicin-resistant) [µg/mL] | MBG (E. coli (MCR106) [6]) [µg/mL] | MBG (S. Aureus (Rif-res) [7]; S. Aureus (Rif-res), rifampicin-resistant, minimum bactericidal concentration) [µg/mL] | MIC (E. coli (BAS) [8]) [µg/mL] | antimicrobial activity against E. coli (E. coli (MCR106) [2]; in words, MIC and MBC, E. coli strain not named) | selectivity for bacterial RNA polymerase relative to human RNA polymerase (bacterial RNA polymerase) | antimicrobial activity against S. aureus (S. Aureus [4]; in words, MIC and MBC, compared with the other compounds) |
| --- | --- | --- | --- | --- | --- | --- | --- | --- | --- | --- | --- | --- | --- | --- | --- | --- | --- | --- | --- |
| CCCCC(C)Nc1ccnc2cc3ccccc3cc12 (centres unmarked) [N-(1-methylpentyl)benzo[g]quinolin-4-amine] | 16 (≈ 57.5 µM) | > 64 | 16 (≈ 57.5 µM) | 16 (≈ 57.5 µM) | 8 (≈ 28.7 µM) | > 64 | 16 (≈ 57.5 µM) | 8 (≈ 28.7 µM) |  |  |  |  |  |  |  |  |  |  |  |
| N-{5-benzo[g]quinolin-4-yl-3-[(diethylamino)methyl]-2-methylbenzyl}-N-ethyl-1-ethanamine |  |  |  |  |  |  |  |  | 64 | 64 | 16 | 64 | 32 | > 64 | 64 | 16 |  |  |  |
| CCN1CCC(c2ccc(Nc3ccnc4cc5ccccc5cc34)cc2)CC1 [N-[4-(1-ethyl-4-piperidyl)phenyl]benzo[g]quinolin-4-amine] | 64 (≈ 168 µM) |  | 32 (≈ 83.9 µM) | 64 (≈ 168 µM) | 32 (≈ 83.9 µM) | 32 (≈ 83.9 µM) | 32 (≈ 83.9 µM) | 32 (≈ 83.9 µM) |  |  |  |  |  |  |  |  |  |  |  |
| CC(C)Nc1ccc(Nc2ccnc3cc4ccccc4cc23)cc1 [N^1-benzo[g]quinolin-4-yl-N^4-isopropyl-1,4,benzenediamine] | 8 (≈ 24.4 µM) | > 64 | > 64 | 8 (≈ 24.4 µM) | 32 (≈ 97.7 µM) | > 64 | 32 (≈ 97.7 µM) | > 64 |  |  |  |  |  |  |  |  |  |  |  |
| CCN(CC)CCNc1ccc(Nc2ccnc3cc4ccccc4cc23)cc1 [N^1-benzo[g]quinolin-4-yl-N^4-[2-(diethylamino)ethyl]-1,4-benzenediamine] | 16 (≈ 41.6 µM) | 8 (≈ 20.8 µM) | 16 (≈ 41.6 µM) | 16 (≈ 41.6 µM) | 8 (≈ 20.8 µM) | 16 (≈ 41.6 µM) | 8 (≈ 20.8 µM) | 4 (≈ 10.4 µM) |  |  |  |  |  |  |  |  |  |  |  |
| c1ccc2cc3c(Nc4ccc(N5CCCCCC5)cc4)ccnc3cc2c1 [N-[4-(1-azepanyl)phenyl]benzo[g]quinolin-4-amine] | 2 (≈ 5.44 µM) | > 64 | > 64 | 2 (≈ 5.44 µM) | 1 (≈ 2.72 µM) | > 64 | 1 (≈ 2.72 µM) | > 64 |  |  |  |  |  |  |  |  |  |  |  |
| OCCCN1CCN(c2ccc(Nc3ccnc4cc5ccccc5cc34)cc2)CC1 [3{4-[4-(benzo[g]quinolin-4-yl-amino)phenyl]-1-piperazinyl}-1-propanol] | 32 (≈ 77.6 µM) | 16 (≈ 38.8 µM) | 8 (≈ 19.4 µM) | 32 (≈ 77.6 µM) | 8 (≈ 19.4 µM) | 64 (≈ 155 µM) | 8 (≈ 19.4 µM) | 8 (≈ 19.4 µM) |  |  |  |  |  |  |  |  |  |  |  |
| c1ccc2cc3c(Nc4ccc(N5CCCCC5)cc4)ccnc3cc2c1 [N-[4-(1-piperidinyl)phenyl]benzo[g]quinolin-4-amine] | 4 (≈ 11.3 µM) | > 64 | 2 (≈ 5.66 µM) | 2 (≈ 5.66 µM) | 2 (≈ 5.66 µM) | > 64 | 2 (≈ 5.66 µM) | 2 (≈ 5.66 µM) |  |  |  |  |  |  |  |  | less effective against E. coli | highest degree of selectivity for bacterial RNA polymerases | most potent antimicrobial activity against s. aureus |
| C#CCCN1CCN(c2ccc(Nc3ccnc4cc5ccccc5cc34)cc2)CC1 [N-{4-[4-(3-butynyl)-1-piperazinyl]phenyl}benzo[g]quinolin-4-amine] | 16 (≈ 39.4 µM) | > 64 | > 64 | 16 (≈ 39.4 µM) | 16 (≈ 39.4 µM) | > 64 | 16 (≈ 39.4 µM) | > 64 |  |  |  |  |  |  |  |  |  |  |  |
